Results as given in patent US8802678B2, “Carbonylated (aza) cyclohexanes as dopamine D3 receptor ligands” (Bioprojet, priority 2006, dated 2014).

melting point | SMILES
192 °C | CS(=O)(=O)CC(=O)N[C@H]1CC[C@H](CCN2CCN(c3cc(C(F)(F)F)ccc3F)CC2)CC1 [Example 706, N-(4-{2-[4-(2-Fluoro-5-trifluoromethylphenyl)piperazin-1-yl]ethyl}cyclohexyl)-2-methanesulfonylacetamide]
143 °C | CCc1cccc(N2CCN(CC[C@H]3CC[C@H](NC(=O)CCC#N)CC3)CC2)c1 [Example 251, 3-Cyano-N-(4-{2-[4-(3-ethylphenyl)piperazin-1-yl]ethyl}cyclohexyl)propanamide]
210 °C | COCCCC(=O)N[C@H]1CC[C@H](CCN2CCN(c3ccc(Cl)c(Cl)c3F)CC2)CC1 [Example 684, N-(4-{2-[4-(3,4-Dichloro-2-fluoro-phenyl)piperazin-1-yl]ethyl}cyclohexyl)-4-methoxybutanamide]
207 °C | N#CCCC(=O)N[C@H]1CC[C@H](CCN2CCN(c3ccc(C(F)(F)F)cc3)CC2)CC1 [Example 643, 3-Cyano-N-(4-{2-[4-(4-trifluoromethylphenyl)piperazin-1-yl]ethyl}cyclohexyl) propanamide]
154 °C | N#CCCCC(=O)N[C@H]1CC[C@H](CCN2CCN(c3ccc(F)cc3)CC2)CC1 [Example 283, 4-Cyano-N-(4-{2-[4-(4-fluorophenyl)piperazin-1-yl]ethyl}cyclohexyl)butanamide]
117 °C | COCc1cccc(N2CCN(CC[C@H]3CC[C@H](NC(=O)CC#N)CC3)CC2)c1 [Example 270, 2-Cyano-N-(4-{2-[4-(3-methoxymethylphenyl)piperazin-1-yl]ethyl}cyclohexyl)acetamide]
274 °C | Cl.Cl.O=C(N[C@H]1CC[C@H](CCN2CCN(c3cc(C(F)(F)F)ccc3F)CC2)CC1)[C@@H]1CCCN1 (stereo in doubt)
125 °C | COCCC(=O)N[C@H]1CC[C@H](CCN2CCN(c3cccc(C(F)(F)F)c3)CC2)CC1 [Example 47, 3-Methoxy-N-(4-{2-[4-(3-trifluoromethylphenyl)piperazin-1-yl]ethyl}cyclohexyl)propanamide]
217 °C | COCC(=O)N[C@H]1CC[C@H](CCN2CCN(c3cccc(C(F)(F)F)c3)CC2)CC1.Cl
100 °C | CCOCC(=O)N[C@H]1CC[C@H](CCN2CCN(c3cccc(CC)c3)CC2)CC1 [Example 563, 2-Ethoxy-N-(4-{2-[4-(3-ethylphenyl)piperazin-1-yl]ethyl}cyclohexyl)acetamide]
162 °C | Cc1cccc(N2CCN(CC[C@H]3CC[C@H](NC(=O)CCCC#N)CC3)CC2)c1C [Example 429, 4-Cyano-N-(4-{2-[4-(2,3-dimethylphenyl)piperazin-1-yl]ethyl}cyclohexyl)butanamide]
150 °C | Cc1cc(F)cc(N2CCN(CC[C@H]3CC[C@H](NC(=O)CCCC#N)CC3)CC2)c1 [Example 726, 4-Cyano-N-(4-{2-[4-(3-fluoro-5-methylphenyl)piperazin-1-yl]ethyl}cyclohexyl)butanamide]
195 °C | COCCCC(=O)N[C@H]1CC[C@H](CCN2CCN(c3cc(C)cc(C)c3)CC2)CC1 [Example 715, N-(4-{2-[4-(3,5-Dimethylphenyl)-piperazin-1-yl]ethyl}cyclohexyl)-4-methoxybutanamide]
168 °C | COCCCC(=O)N[C@H]1CC[C@H](CCN2CCN(c3cc(C(F)(F)F)cc(C(F)(F)F)c3)CC2)CC1 [Example 741, N-(4-{2-[4-(3,5-Bistrifluoro-methylphenyl)piperazin-1-yl]ethyl}cyclohexyl)-4-methoxybutanamide]
174 °C | N#CCCCC(=O)N[C@H]1CC[C@H](CCN2CCN(c3cc(C#N)cc(C(F)(F)F)c3)CC2)CC1 [Example 432, 4-Cyano-N-(4-{2-[4-(3-cyano-5-trifluoromethylphenyl)piperazin-1-yl]ethyl}cyclohexyl)butanamide]
132 °C | CCOCC(=O)N[C@H]1CC[C@H](CCN2CCN(c3cc(C)c(F)cc3Cl)CC2)CC1 [Example 579, N-(4-{2-[4-(2-Chloro-4-fluoro-5-methylphenyl)piperazin-1-yl]ethyl}cyclohexyl)-2-ethoxyacetamide]
136 °C | COCC(=O)N[C@H]1CC[C@H](CCN2CCN(c3cccc(C)c3C#N)CC2)CC1 [Example 49, N-(4-{2-[4-(2-Cyano-3-methylphenyl)piperazin-1-yl]ethyl}cyclohexyl)-2-methoxyacetamide]
189 °C | Cc1ccc(N2CCN(CC[C@H]3CC[C@H](NC(=O)CCCC#N)CC3)CC2)cc1 [Example 467, 4-Cyano-N-{4-[2-(4-p-tolylpiperazin-1-yl)ethyl]cyclohexyl}butanamide]
164 °C | N#CCCC(=O)N[C@H]1CC[C@H](CCN2CCN(c3cc(C(F)(F)F)ccc3F)CC2)CC1 [Example 668, 3-Cyano-N-(4-{2-[4-(2-fluoro-5-trifluoromethylphenyl)piperazin-1-yl]ethyl}cyclohexyl)propanamide]
219 °C | COc1cccc(N2CCN(CC[C@H]3CC[C@H](NC(=O)CC#N)CC3)CC2)c1.Cl
171 °C | COCCCC(=O)N[C@H]1CC[C@H](CCN2CCN(c3cc(C)c(F)cc3Cl)CC2)CC1 [Example 580, N-(4-{2-[4-(2-Chloro-4-fluoro-5-methylphenyl)piperazin-1-yl]ethyl}cyclohexyl)-4-methoxybutanamide]
156 °C | O=C(N[C@H]1CC[C@H](CCN2CCN(c3cccc(C(F)(F)F)c3F)CC2)CC1)C(F)F [Example 443, 2,2-Difluoro-N-(4-{2-[4-(2-fluoro-3-trifluoromethylphenyl)piperazin-1-yl]ethyl}cyclohexyl)acetamide]
165 °C | N#CCCCC(=O)N[C@H]1CC[C@H](CCN2CCN(c3ccc(C(F)(F)F)cc3F)CC2)CC1 [Example 646, 4-Cyano-N-(4-{2-[4-(2-fluoro-4-trifluoromethylphenyl)piperazin-1-yl]ethyl}cyclohexyl)-butanamide]
193 °C | N#CCC(=O)N[C@H]1CC[C@H](CCN2CCN(c3cc(C(F)(F)F)c(Cl)cc3Cl)CC2)CC1 [Example 423, 2-Cyano-N-(4-{2-[4-(2,4-dichloro-5-trifluoromethylphenyl)piperazin-1-yl]ethyl}cyclohexyl)acetamide]
196 °C | N#CC1CC1C(=O)N[C@H]1CC[C@H](CCN2CCN(c3cc(C(F)(F)F)ccc3F)CC2)CC1 (stereo partly shown) [Example 763, 2-Cyano-cyclopropanecarb-oxylic acid (4-{2-[4-(2-fluoro-5-trifluoromethylphenyl)piperazin-1-yl]ethyl}cyclohexyl) amide]
138 °C | COCC(=O)N[C@H]1CC[C@H](CCN2CCN(c3cccc(C#N)c3)CC2)CC1 [Example 86, N-(4-{2-[4-(3-Cyanophenyl)piperazin-1-yl]ethyl}cyclohexyl)-2-methoxyacetamide]

Second part, the compound before the results:

SMILES | melting point
CCc1ccc(N2CCN(CC[C@H]3CC[C@H](NC(=O)CC#N)CC3)CC2)c(CC)c1 [Example 255, 2-Cyano-N-(4-{2-[4-(2,4-diethylphenyl)piperazin-1-yl]ethyl}cyclohexyl)acetamide] | 183 °C
CSc1ccccc1N1CCN(CC[C@H]2CC[C@H](NC(=O)CC#N)CC2)CC1 [Example 194, 2-Cyano-N-(4-{2-[4-(2-methylsulfanylphenyl)piperazin-1-yl]ethyl}cyclohexyl)acetamide] | 146 °C
N#CCCCC(=O)N[C@H]1CC[C@H](CCN2CC=C(c3ccc(C(F)(F)F)cc3)CC2)CC1 | 185 °C
CC(=O)CN1CCC(CCN2CCN(c3ccc(Cl)cc3F)CC2)CC1.Cl.Cl | 206 °C
CC(=O)CN1CCC(CCN2CCN(c3cc(Cl)cc(Cl)c3)CC2)CC1 [Example 311, 1-(4-{2-[4-(3,5-Dichlorophenyl)-piperazin-1-yl]ethyl}piperidin-1-yl)propan-2-one] | 126 °C
N#CCC(=O)N[C@H]1CC[C@H](CCN2CCN(c3ccccc3Oc3ccccc3)CC2)CC1 [Example 245, 2-Cyano-N-(4-{2-[4-(2-phenoxyphenyl)piperazin-1-yl]ethyl}cyclohexyl)acetamide] | 169 °C
N#CCCCC(=O)N[C@H]1CC[C@H](CCN2CCN(c3ccccc3C#N)CC2)CC1 [Example 377, 4-Cyano-N-(4-{2-[4-(2-cyanophenyl)piperazin-1-yl]ethyl}cyclohexyl)butanamide] | 160 °C
CC(=O)CN1CCC(CCN2CCN(c3cccc(C(C)(C)C)c3)CC2)CC1.Cl.Cl | 257 °C
N#CCC(=O)N[C@H]1CC[C@H](CCN2CCN(c3ccc(C#N)cc3)CC2)CC1 [Example 370, 2-Cyano-N-(4-{2-[4-(4-cyanophenyl)piperazin-1-yl]ethyl}cyclohexyl)acetamide] | 228 °C
COc1ccc(C)c(N2CCN(CCC3CCN(CC(C)=O)CC3)CC2)c1.Cl.Cl | 283 °C
CCc1cccc(N2CCN(CC[C@H]3CC[C@H](NC(=O)CS(C)(=O)=O)CC3)CC2)c1 [Example 425, N-(4-{2-[4-(3-Ethylphenyl)-piperazin-1-yl]ethyl}cyclohexyl)-2-methanesulfonylacetamide] | 185 °C
CC(=O)CN1CCC(CCN2CCN(c3cc(C)ccc3F)CC2)CC1.Cl.Cl | 275 °C
O=C(N[C@H]1CC[C@H](CCN2CCN(c3ccccc3F)CC2)CC1)C1=CCCC1 [Example 68, Cyclopent-1-enecarboxylic acid (4-{2-[4-(2-fluorophenyl)-piperazin-1-yl]ethyl}-cyclohexyl)amide] | 210 to 211 °C
COc1ccc(OC)c(N2CCN(CCC3CCN(CC(C)=O)CC3)CC2)c1.Cl.Cl | 268 °C
N#CCC(=O)N[C@H]1CC[C@H](CCN2CCN(c3cccc(Cl)c3F)CC2)CC1 [Example 185, N-(4-{2-[4-(3-Chloro-2-fluorophenyl)piperazin-1-yl]ethyl}cyclohexyl)-2-cyanoacetamide] | 183 °C
CCc1ccc(N2CCN(CC[C@H]3CC[C@H](NC(=O)CC#N)CC3)CC2)cc1 [Example 285, 2-Cyano-N-(4-{2-[4-(4-ethylphenyl)piperazin-1-yl]ethyl}cyclohexyl)acetamide] | 210 °C
O=C(C[C@H]1CC[C@H](CCN2CCN(c3ccccc3F)CC2)CC1)NCC(F)(F)F [Example 304, 2-(4-{2-[4-(2-Fluorophenyl)piperazin-1-yl]ethyl}cyclohexyl)-N-(2,2,2-trifluoroethyl)acetamide] | 158 to 159 °C
